Measurements reported in patent US20230374017A1, “COMPOSITIONS AND METHODS FOR ACTIVATING PYRUVATE KINASE” (The Regents of the University of Michigan, priority 2020, published 2023).
pEC50: −log10 of the molar value.

Columns and labels:
[1] = biological target: T1, pyruvate kinase activity, 661W cell line (Mus musculus, UniProt P52480); test: Pyruvate kinase activity in 661W cell lysates after 2 hours treatment; type: cell-based; conditions: 661W cells, 2 hours incubation, activity normalized to total protein; for Emax: read-out: Max Activation (cell)
T1 construct: endogenous in cells; host or cells: 661W cell line
Description: Cell culture. For 661W cell line experiments, media was replaced prior to the start of treatment with DMSO or ML-265. Cells were incubated with DMSO or different concentrations of ML-265 for 2 hours. Cells were lysed and homogenized in RIPA Lysis and Extraction Buffer (Catalog number: 89900, Life Technologies Corporation, Grand Island, NY) with protease inhibitors (Complete-Mini, Roche Diagnostics, Indianapolis, IN) and cellular debris was removed by centrifugation at 10,000 rpm for 10 minutes. Ten microliters of the supernatant was used to assess pyruvate kinase activity, and the activity was normalized to total protein content as previously described.

[2] = biological target: T2, human recombinant PKM2 (Homo sapiens, UniProt P14618); test: Pyruvate kinase activity enzyme assay, recombinant enzyme (LDH-coupled, NADH depletion at 340 nm); type: biochemical; conditions: normalized to DMSO-treated PKM2 activity; for pEC50: recombinant PKM2 20 nM; for Emax: recombinant PKM2, read-out: Max Activation
T2 construct: purchased Sigma SAE0021
Description: Pyruvate Kinase Activity Enzyme Assay. Recombinant Enzyme. A continuous, enzyme-coupled assay, which uses lactate dehydrogenase (LDH) and measures the depletion of NADH via absorbance at 340 nm was utilized to determine the pyruvate kinase activity. For AC50 measurements (concentration of activator necessary to achieve half-maximal activation) with ML-265, assays were performed in 96-well format using 200 μL/well assay volume with final concentrations of 20 nM human recombinant PKM2 (Sigma, SAE0021), differing concentrations of ML-265, 0.5 mM PEP, 1 mM ADP, 0.2 mM NADH, and 8 U of lactate dehydrogenase (LDH) in an assay buffer of 50 mM Tris-HCl (pH 7.4), 100 mM KCl, and 5 mM MgCl2. The decrease in absorbance at 340 nm was monitored using a SPECTROstar Omega plate reader (BMG LABTECH Inc., Cary, NC, USA). Initial velocities were calculated with the MARS software. Data were normalized to DMSO (dimethyl sulfoxide)-treated PKM2 activity.

[3] = tested on: photoreceptors / retina; conditions: cited from earlier work

T1 sequence (P52480 whole entry): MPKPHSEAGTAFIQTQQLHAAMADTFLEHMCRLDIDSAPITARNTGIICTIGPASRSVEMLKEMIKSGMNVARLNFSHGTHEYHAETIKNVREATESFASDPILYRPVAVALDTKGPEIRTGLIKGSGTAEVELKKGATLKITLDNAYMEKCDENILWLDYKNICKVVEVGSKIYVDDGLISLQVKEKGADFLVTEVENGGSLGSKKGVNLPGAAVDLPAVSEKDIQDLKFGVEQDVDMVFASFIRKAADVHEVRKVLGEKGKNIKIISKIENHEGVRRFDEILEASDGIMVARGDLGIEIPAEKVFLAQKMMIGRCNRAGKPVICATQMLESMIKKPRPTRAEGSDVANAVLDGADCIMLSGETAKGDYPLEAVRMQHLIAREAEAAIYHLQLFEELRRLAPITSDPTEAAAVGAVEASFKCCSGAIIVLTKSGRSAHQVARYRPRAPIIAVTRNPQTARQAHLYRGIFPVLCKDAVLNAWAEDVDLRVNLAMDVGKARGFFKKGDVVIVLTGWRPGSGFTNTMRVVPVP
T2 sequence (P14618 whole entry): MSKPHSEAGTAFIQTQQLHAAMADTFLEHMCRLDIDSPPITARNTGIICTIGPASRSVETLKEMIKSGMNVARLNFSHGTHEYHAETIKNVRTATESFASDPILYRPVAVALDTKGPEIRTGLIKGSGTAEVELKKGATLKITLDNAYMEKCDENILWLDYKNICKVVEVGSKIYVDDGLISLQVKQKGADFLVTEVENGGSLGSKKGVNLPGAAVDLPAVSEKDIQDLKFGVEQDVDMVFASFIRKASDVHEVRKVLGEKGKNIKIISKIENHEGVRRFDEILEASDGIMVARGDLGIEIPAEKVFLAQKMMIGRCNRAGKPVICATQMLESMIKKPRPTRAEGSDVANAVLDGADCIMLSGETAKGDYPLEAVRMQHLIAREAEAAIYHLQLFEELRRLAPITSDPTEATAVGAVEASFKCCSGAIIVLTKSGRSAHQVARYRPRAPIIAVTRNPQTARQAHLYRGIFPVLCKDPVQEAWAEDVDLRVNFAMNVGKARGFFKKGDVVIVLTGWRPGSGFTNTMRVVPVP

Structure (SMILES) | pEC50 [1] | Emax [1] [%] | pEC50 [2] | Emax [2] [%] | toxic effects on the retina ([3]; long-term) | photoreceptor apoptosis ([3]; small molecule activation of PKM2, models of outer retinal stress)
Cc1cccc(Cn2ncc3c4ccc(Oc5nccc6[nH]ncc56)cc4n(C)c3c2=O)n1 [Example 64, 7-((1H-pyrazolo[4,3-c]pyridin-4-yl)oxy)-5-methyl-3-((6-methylpyridin-2-yl)methyl)-3,5-dihydro-4H-pyridazino[4,5-b]indol-4-one] | 7.14 | 272 | 7.16 | 165 |  | 
Cc1cccc(Cn2ncc3c4ccc(Oc5ncnc6[nH]ncc56)cc4n(C)c3c2=O)n1 [Example 65, 7-((1H-pyrazolo[3,4-d]pyrimidin-4-yl)oxy)-5-methyl-3-((6-methylpyridin-2-yl)methyl)-3,5-dihydro-4H-pyridazino[4,5-b]indol-4-one] | 6.94 | 262 | 7.37 | 191 |  | 
Cc1cccc(Cn2ncc3c4ccc(Oc5cccc(F)n5)cc4n(C)c3c2=O)n1 [Example 66, 7-((6-fluoropyridin-2-yl)oxy)-5-methyl-3-((6-methylpyridin-2-yl)methyl)-3,5-dihydro-4H-pyridazino[4,5-b]indol-4-one] | 6.92 | 323 | 7.44 | 154 |  | 
Cc1cccc(Cn2ncc3c4ccc(Oc5cccc(Cl)n5)cc4n(C)c3c2=O)n1 [Example 67, 7-((6-chloropyridin-2-yl)oxy)-5-methyl-3-((6-methylpyridin-2-yl)methyl)-3,5-dihydro-4H-pyridazino[4,5-b]indol-4-one] | 6.83 | 290 | 7.31 | 277 |  | 
Cn1c2cc(Oc3ccc4[nH]ncc4n3)ccc2c2cnn(Cc3ccccc3F)c(=O)c21 [Example 70, 7-((1H-pyrazolo[4,3-b]pyridin-5-yl)oxy)-3-(2-fluorobenzyl)-5-methyl-3,5-dihydro-4H-pyridazino[4,5-b]indol-4-one] | 6.79 | 210 | 7.09 | 191 |  | 
Cn1c2cc(Oc3nccc4[nH]ncc34)ccc2c2cnn(Cc3ccccc3F)c(=O)c21 [Example 71, 7-((1H-pyrazolo[4,3-c]pyridin-4-yl)oxy)-3-(2-fluorobenzyl)-5-methyl-3,5-dihydro-4H-pyridazino[4,5-b]indol-4-one] | 7.16 | 278 | 7.55 | 165 |  | 
Cn1c2cc([S+](C)[O-])sc2c2cnn(Cc3cccc(N)c3)c(=O)c21 (centres unmarked) [ML-265] |  |  |  |  | without any toxic effects on the retina long-term | circumvents photoreceptor apoptosis

Now from value to compound, other results behind:

pEC50 [1] | Emax [1] [%] | pEC50 [2] | Emax [2] [%] | Structure (SMILES) | toxic effects on the retina ([3]; long-term) | photoreceptor apoptosis ([3]; small molecule activation of PKM2, models of outer retinal stress)
7.14 | 222 | 7.26 | 206 | Cn1c2cc(Oc3cccc(O)n3)ccc2c2cnn(Cc3ccccc3F)c(=O)c21 [Example 72, 3-(2-fluorobenzyl)-7-((6-hydroxypyridin-2-yl)oxy)-5-methyl-3,5-dihydro-4H-pyridazino [4,5-b]indol-4-one] |  | 
6.98 | 189 | 7.66 | 232 | Cn1c2cc(Oc3ncnc4[nH]ncc34)ccc2c2cnn(Cc3ccccc3F)c(=O)c21 [Example 73, 7-((1H-pyrazolo[3,4-d]pyrimidin-4-yl)oxy)-3-(2-fluorobenzyl)-5-methyl-3,5-dihydro-4H-pyridazino[4,5-b]indol-4-one] |  | 
7.09 | 370 | 7.21 | 234 | Cn1c2cc(Oc3cccc(F)n3)ccc2c2cnn(Cc3ccccc3F)c(=O)c21 [Example 74, 3-(2-fluorobenzyl)-7-((6-fluoropyridin-2-yl)oxy)-5-methyl-3,5-dihydro-4H-pyridazino[4,5-b]indol-4-one] |  | 
7.33 | 247 | 7.46 | 195 | Cn1c2cc(Oc3cccc(Cl)n3)ccc2c2cnn(Cc3cccc(N)c3)c(=O)c21 [Example 78, 3-(3-aminobenzyl)-7-((6-chloropyridin-2-yl)oxy)-5-methyl-3,5-dihydro-4H-pyridazino[4,5-b]indol-4-one] |  | 
6.63 | 325 | 7.35 | 286 | Cn1c2cc(Oc3cccc(N)c3)ccc2c2cnn(Cc3cccc(N)c3)c(=O)c21 [Example 80, 3-(3-aminobenzyl)-7-(3-aminophenoxy)-5-methyl-3,5-dihydro-4H-pyridazino[4,5-b]indol-4-one] |  | 
6.59 | 259 | 7.31 | 336 | Cn1ncc2c3ccc(Oc4cccc(Cl)n4)cc3n(C)c2c1=O [Example 81, 7-((6-chloropyridin-2-yl)oxy)-3,5-dimethyl-3,5-dihydro-4H-pyridazino[4,5-b]indol-4-one] |  | 
7.12 | 315 | 7.20 | 330 | Cn1c2cc(Oc3cccc(F)n3)ccc2c2cnn(Cc3cccc4[nH]ncc34)c(=O)c21 [Example 85, 3-((1H-indazol-4-yl)methyl)-7-((6-fluoropyridin-2-yl)oxy)-5-methyl-3,5-dihydro-4H-pyridazino[4,5-b]indol-4-one] |  | 
6.76 | 352 | 7.20 | 195 | Cn1c2cc(Oc3cccc(F)n3)ccc2c2cnn(Cc3cc[nH]n3)c(=O)c21 [Example 86, 3-((1H-pyrazol-3-yl)methyl)-7-((6-fluoropyridin-2-yl)oxy)-5-methyl-3,5-dihydro-4H-pyridazino[4,5-b]indol-4-one] |  | 
7.22 | 202 | 7.14 | 218 | COc1cccc(Cn2ncc3c4ccc(Oc5cccc(F)n5)cc4n(C)c3c2=O)c1 [Example 90, 7-((6-fluoropyridin-2-yl)oxy)-3-(3-methoxybenzyl)-5-methyl-3,5-dihydro-4H-pyridazino[4,5-b]indol-4-one] |  | 
